# Counter-ions that a name gives are not always drawn.
# Columns and labels:
# [1] = target: T1, Thiosulfate sulfurtransferase (Homo sapiens, UniProt Q16762); type: ADME;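 also: native rhodanese of unspecified species, enzyme activity read after 45 min by spectrophotometric detection of Fe(SCN)3 colour, IC50 reflects activity reduction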
# T1 sequence (Q16762 whole entry): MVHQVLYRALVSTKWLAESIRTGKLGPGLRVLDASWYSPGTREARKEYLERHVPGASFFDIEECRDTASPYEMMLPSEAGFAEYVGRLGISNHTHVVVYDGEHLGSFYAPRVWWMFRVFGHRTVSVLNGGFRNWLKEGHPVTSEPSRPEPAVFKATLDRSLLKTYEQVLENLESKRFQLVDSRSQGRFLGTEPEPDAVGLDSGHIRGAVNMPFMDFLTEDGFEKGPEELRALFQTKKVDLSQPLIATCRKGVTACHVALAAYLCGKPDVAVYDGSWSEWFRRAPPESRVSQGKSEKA
# Description: Inhibition of native rhodanese (unknown origin) assessed as reduction in rhodanese enzyme activity after 45 mins by Fe(SCN)3 dye based spectrometric analysis
# Chaperonin GroEL = Chaperonin GroEL (Escherichia coli (strain K12), UniProt P0A6F5);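 also: inhibition of GroEL ATPase activity with ATP as substrate, 60 min incubation, spectrometric read-out, recombinant enzyme produced in Escherichia coli DH5alpha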
# Description: Inhibition of ATPase activity of Escherichia coli GroEL expressed in Escherichia coliDH5alpha incubated for 60 mins using ATP by spectrometric analysis
# HSP60/HSP10 [2] = target: HSP60/HSP10 (Homo sapiens, UniProt P10809)
# Description: (§1) Inhibition of human N-terminal octa-His-tagged HSP60 expressed in Escherichia coli Rosetta(DE3) pLysS/human HSP10 expressed in Escherichia coli Rosetta(DE3) assessed as reduction in HSP60/HSP10-mediated denatured MDH refolding by measuring MDH enzyme activity using sodium mesoxalate as substrate after 40 to 60 mins by malachite green dye based spectrometric analysis
# E. coli GroEL/ES [3] = target: T2, E. coli GroEL/ES (Escherichia coli, UniProt P0A6F5)
# Description: (§2) Inhibition of Escherichia coli GroEL expressed in Escherichia coli DH5alpha/Escherichia coli GroES expressed in Escherichia coli BL21 (DE3) assessed as reduction in GroEL/GroES-mediated denatured rhodanese refolding by measuring rhodanese enzyme activity after 45 mins by Fe(SCN)3 dye based spectrometric analysis
# E. coli GroEL/ES [4] = target: T2, E. coli GroEL/ES; remark: listed apart in the source
# Description: (§3) Inhibition of Escherichia coli GroEL expressed in Escherichia coliDH5alpha/Escherichia coli GroES expressed in Escherichia coli BL21 (DE3) assessed as reduction in GroEL/GroES-mediated denatured soluble pig heart MDH refolding by measuring MDH enzyme activity using sodium mesoxalate as substrate after 20 to 40 mins by malachite green dye based spectrometric analysis
# HSP60/HSP10 [5] = target: HSP60/HSP10 (Homo sapiens, UniProt P10809+P61604)
# Description: as §1
# GroEL/GroES [6] = target: GroEL/GroES; design: species or system Escherichia coli
# Description: as §2
# GroEL/GroES [7] = target: GroEL/GroES; design: species or system Escherichia coli; remark: listed apart in the source
# Description: as §3
# HSP60/HSP10 (Homo sapiens, UniProt P10809), sequence (P10809 whole entry): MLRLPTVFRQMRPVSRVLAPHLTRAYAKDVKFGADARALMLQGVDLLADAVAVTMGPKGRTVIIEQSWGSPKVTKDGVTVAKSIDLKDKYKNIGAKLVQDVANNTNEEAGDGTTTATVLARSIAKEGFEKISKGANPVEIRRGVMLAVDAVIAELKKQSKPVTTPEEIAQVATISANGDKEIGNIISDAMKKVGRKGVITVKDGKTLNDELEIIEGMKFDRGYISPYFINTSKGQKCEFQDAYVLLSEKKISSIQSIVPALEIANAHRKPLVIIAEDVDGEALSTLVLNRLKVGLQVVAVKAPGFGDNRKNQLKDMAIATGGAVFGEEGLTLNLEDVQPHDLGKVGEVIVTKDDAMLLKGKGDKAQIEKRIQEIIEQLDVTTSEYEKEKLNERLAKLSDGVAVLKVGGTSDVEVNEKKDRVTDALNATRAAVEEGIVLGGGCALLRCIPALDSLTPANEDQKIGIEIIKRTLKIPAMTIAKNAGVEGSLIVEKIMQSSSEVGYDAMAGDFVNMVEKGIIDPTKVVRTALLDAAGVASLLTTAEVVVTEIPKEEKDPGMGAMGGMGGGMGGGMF
# HSP60/HSP10 (Homo sapiens, UniProt P10809), sequence (P61604 whole entry, further chain): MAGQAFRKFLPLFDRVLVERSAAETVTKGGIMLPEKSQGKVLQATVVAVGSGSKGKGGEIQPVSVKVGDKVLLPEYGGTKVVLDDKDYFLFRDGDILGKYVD
# Chaperonin GroEL, sequence (P0A6F5 whole entry): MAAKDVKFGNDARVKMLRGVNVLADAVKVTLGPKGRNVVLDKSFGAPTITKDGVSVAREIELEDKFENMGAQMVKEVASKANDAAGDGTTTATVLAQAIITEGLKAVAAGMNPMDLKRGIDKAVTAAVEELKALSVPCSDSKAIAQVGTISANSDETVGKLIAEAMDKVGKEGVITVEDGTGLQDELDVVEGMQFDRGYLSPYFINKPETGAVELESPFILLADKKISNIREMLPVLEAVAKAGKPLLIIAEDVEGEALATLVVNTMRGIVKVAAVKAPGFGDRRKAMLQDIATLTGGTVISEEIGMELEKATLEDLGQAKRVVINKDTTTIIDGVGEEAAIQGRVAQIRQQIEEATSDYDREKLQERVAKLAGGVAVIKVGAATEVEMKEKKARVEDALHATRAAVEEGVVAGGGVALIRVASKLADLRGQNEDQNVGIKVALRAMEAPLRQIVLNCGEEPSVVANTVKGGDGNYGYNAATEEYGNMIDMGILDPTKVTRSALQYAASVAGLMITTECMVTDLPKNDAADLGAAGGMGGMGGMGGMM
# T2 sequence (P0A6F5 whole entry, looked up): as the sequence (P0A6F5 whole entry) above
# HSP60/HSP10 (Homo sapiens, UniProt P10809+P61604), sequence (P10809 whole entry): as the sequence (P10809 whole entry) above
# HSP60/HSP10 (Homo sapiens, UniProt P10809+P61604), sequence (P61604 whole entry): as the sequence (P61604 whole entry, further chain) above
SMILES,IC50 [1] [µM],IC50 (Chaperonin GroEL) [µM],IC50 (HSP60/HSP10 [2]) [µM],IC50 (E. coli GroEL/ES [3]) [µM],IC50 (E. coli GroEL/ES [4]) [µM],IC50 (HSP60/HSP10 [5]) [µM],IC50 (GroEL/GroES [6]) [µM],IC50 (GroEL/GroES [7]) [µM]
O=C1c2ccccc2C(=O)c2c(O)c(O)cc(O)c21 [PURPURIN],2.3,> 250,23,4,15,,,
CC1=CC(=O)c2c(O)cccc2C1=O [PLUMBAGIN],0.06,> 250,6.3,0.29,3.8,,,
CC[C@H](C)C1O[C@]2(C=C[C@@H]1C)C[C@@H]1C[C@@H](C/C=C(\C)[C@@H](O[C@H]3C[C@H](OC)[C@@H](O[C@H]4C[C@H](OC)[C@H](NC(C)=O)[C@H](C)O4)[C@H](C)O3)[C@@H](C)/C=C/C=C3\CO[C@@H]4[C@H](O)C(C)=C[C@@H](C(=O)O1)[C@]34O)O2 (some centres undefined),> 100,> 250,17,38,11,,,
C=C(CC)C(=O)c1ccc(OCC(=O)O)c(Cl)c1Cl [ETHACRYNIC ACID],> 100,> 250,8.5,4.7,5.2,,,
CCCCCCCCCCCCCCCC(=O)OC[C@H](O)[C@H]1OC(=O)C(O)=C1O [ASCORBYL PALMITATE],53,177,3.1,8.5,3.5,,,
CCc1oc2ccccc2c1C(=O)c1cc(Br)c(O)c(Br)c1 [BENZBROMARONE],> 100,> 250,9.1,49,18,,,
COc1ccc(C(=O)/C=C/c2ccccc2)cc1 [4'-METHOXYCHALCONE],> 100,> 250,16,30,13,,,
O=C(/C=C/c1ccc(O)cc1)c1ccccc1 [4-HYDROXYCHALCONE],> 100,> 250,22,40,21,,,
Oc1ccc(Cl)cc1Cc1cc(Cl)ccc1O [DICHLOROPHEN],> 100,> 250,17,66,24,,,
CC[C@H](C)[C@H]1O[C@]2(C=C[C@@H]1C)C[C@@H]1C[C@@H](C/C=C(\C)[C@@H](O[C@H]3C[C@H](OC)[C@@H](O[C@H]4C[C@H](OC)[C@@H](O)[C@H](C)O4)[C@H](C)O3)[C@@H](C)/C=C/C=C3\CO[C@@H]4[C@H](O)C(C)=C[C@@H](C(=O)O1)[C@]34O)O2 [ABAMECTIN COMPONENT B1A],> 100,> 250,15,32,9.8,,,
CN(C)c1ccc(C(=C2C=CC(=[N+](C)C)C=C2)c2ccc(N(C)C)cc2)cc1 [GENTIAN VIOLET],16,> 250,5.8,15,11,,,
O=C(/C=C/c1ccccc1)c1ccc(O)cc1 [4'-HYDROXYCHALCONE],> 100,> 250,20,56,21,,,
O=C(OC[C@H]1O[C@@H](OC(=O)c2cc(O)c(O)c(OC(=O)c3cc(O)c(O)c(O)c3)c2)[C@H](OC(=O)c2cc(O)c(O)c(OC(=O)c3cc(O)c(O)c(O)c3)c2)[C@@H](OC(=O)c2cc(O)c(O)c(OC(=O)c3cc(O)c(O)c(O)c3)c2)[C@@H]1OC(=O)c1cc(O)c(O)c(OC(=O)c2cc(O)c(O)c(O)c2)c1)c1cc(O)c(O)c(OC(=O)c2cc(O)c(O)c(O)c2)c1 [TANNIC ACID],39,137,3.8,1,0.87,,,
Cc1cc2c(C(C)C)c(O)c(O)c(C=O)c2c(O)c1-c1c(C)cc2c(C(C)C)c(O)c(O)c(C=O)c2c1O,11,> 250,1.2,0.43,0.66,,,
CC1(C)CCC2=C(O1)c1ccccc1C(=O)C2=O [LAPACHONE],0.12,> 250,2.1,0.59,1.3,,,
CCCCCCCCCc1ccc(O)cc1 [4-NONYLPHENOL],72,> 250,9.5,29,12,,,
CCCCC/C=C\C/C=C\C/C=C\C/C=C\CCCC(=O)O [ARACHIDONIC ACID],> 100,> 250,4.5,18,7.3,,,

SMILES,IC50 [1] [µM],IC50 (Chaperonin GroEL) [µM],IC50 (HSP60/HSP10 [2]) [µM],IC50 (E. coli GroEL/ES [3]) [µM],IC50 (E. coli GroEL/ES [4]) [µM],IC50 (HSP60/HSP10 [5]) [µM],IC50 (GroEL/GroES [6]) [µM],IC50 (GroEL/GroES [7]) [µM]
Oc1c(Cl)cc(Cl)c(Cl)c1Cc1c(O)c(Cl)cc(Cl)c1Cl [HEXACHLOROPHENE],51,153,1.3,4.7,1.4,,,
O=c1c(O)c(-c2ccc(O)cc2O)oc2cc(O)cc(O)c12 [MORIN],57,> 250,11,5.2,8.5,,,
C=C1CC[C@H](O)C/C1=C/C=C1\CCC[C@]2(C)[C@@H]([C@H](C)CCCC(C)C)CC[C@@H]12 [CHOLECALCIFEROL],> 100,> 250,11,31,22,,,
CCCCCCCCCCCCCCCCC(C(=O)O)C(O)(CC(=O)O)C(=O)O (centres undefined),> 100,> 250,4,8.9,3.5,,,
CC[C@H]1OC(=O)[C@H](C)[C@@H](O[C@H]2C[C@@](C)(OC)[C@@H](O)[C@H](C)O2)[C@H](C)[C@@H](O[C@@H]2O[C@H](C)C[C@H](N(C)C)[C@H]2O)[C@](C)(O)C[C@@H](C)C(=O)[C@H](C)[C@@H](O)[C@]1(C)O [ERYTHROMYCIN],> 100,> 250,> 100,178,> 100,,,
Cc1cc(-c2ccc(/N=N/c3ccc4c(S(=O)(=O)O)cc(S(=O)(=O)O)c(N)c4c3O)c(C)c2)ccc1/N=N/c1ccc2c(S(=O)(=O)O)cc(S(=O)(=O)O)c(N)c2c1O [EVANS BLUE],8.7,161,0.17,0.087,0.039,,,
C=CC1=C(C)c2cc3[nH]c(cc4nc(cc5[nH]c(cc1n2)c(C)c5CCC(=O)O)C(CCC(=O)O)=C4C)c(C)c3C=C [PROTOPORPHYRIN],,> 250,,,,4.9,3,4.4
O=C(O[C@@H]1Cc2c(O)cc(O)cc2O[C@@H]1c1cc(O)c(O)c(O)c1)c1cc(O)c(O)c(O)c1 [EPIGALOCATECHIN GALLATE],7.3,> 250,2.3,0.58,0.36,,,
CC(COc1ccccc1)N(CCCl)Cc1ccccc1 (centres undefined) [PHENOXYBENZAMINE HYDROCHLORIDE],> 100,> 250,78,129,40,,,
O=c1c(O)c(-c2ccc(O)c(O)c2)oc2c(O)c(O)cc(O)c12 [GOSSYPETIN],0.33,> 250,7.5,0.39,2.1,,,
Oc1c(Cl)cc(Cl)cc1Sc1cc(Cl)cc(Cl)c1O [BITHIONOL],> 100,> 250,2.8,13,4.3,,,
COc1cc(/C=C/C(=O)CC(=O)/C=C/c2ccc(O)c(OC)c2)ccc1O [CURCUMIN],56,> 250,8.3,2.9,3.1,,,
CC1=CC(=O)c2ccccc2C1=O [MENADIONE],1,> 250,15,2.5,9,,,
CC[n+]1c(-c2ccccc2)c2cc(N)ccc2c2ccc(N)cc21 [HOMIDIUM BROMIDE],0.83,> 250,> 100,2.4,> 100,,,
O=C(O)C1=CC(=C(c2ccc(O)c(C(=O)O)c2)c2ccc(O)c(C(=O)O)c2)C=CC1=O [AURINTRICARBOXYLIC ACID],> 100,> 250,3.2,0.57,0.9,,,
COc1ccc(-c2ccc3cc(C(=O)O)ccc3c2)cc1C12CC3CC(CC(C3)C1)C2,> 100,> 250,2.3,5.1,2.1,,,

# From ChEMBL document CHEMBL4392822, “HSP60/10 chaperonin systems are inhibited by a variety of approved drugs, natural products, and known bioactive molecules” (Bioorg Med Chem Lett, 2019)
